Assay results: patent US12728119B2, “Pharmaceutical composition for preventing or treating cancer comprising 3-ketoacyl CoA thiolase inhibitor and carnitine acylcarnitine carrier inhibitor” (NATIONAL CANCER CENTER, priority 2020, dated 2026)
“And” between values parts separate entries of the source, which are not always exact repeats. Identical values can stand only once.

Columns and labels:
Format in all cases: cell-based
[1] = system: BxPC-3 pancreatic cancer cell line; assay: SRB analysis 1; details: Homo sapiens, % compared to the control group, read-out: degree of growth inhibition
Experimental: (§1) Pancreatic cancer (MIA PaCa2, Capan1, Capan2, BxPC-3, SNU-213 or SNU-324) cell lines (100 μl) were seeded into 96-well microtiter plates at densities ranging from 7,500 to 10,000 cells/well depending on the doubling time of each cell line. After adding Trimetazidine (KN713) 1 mM, omeprazole (KN510) 100 or 200 μM, trimetazidine 1 mM+omeprazole 100 μM, trimetazidine 1 mM+omeprazole 200 μM, respectively, to each well by 100 μl each, and plate was incubated in a CO2 incubator, and cold TCA was added to terminate the assay. 50 μl of cold 50% (w/v) TCA (final concentration: 10% TCA) was gently added to fix the cells and incubated at 4° C. for 60 minutes. The supernatant was discarded and the plate was washed 5 times with tap water and then air dried. A solution of 0.4% (w/v) Sulforhodamine B (100 μl) in 1% acetic acid was added to each well, and the plate was left at room temperature for 10 minutes. After staining, the plates were air dried after washing 5 times with 1% acetic acid to remove unbound dye. The bound dye was then solubilized with 10 mM trizma base and the absorbance was recorded at 515 nm using an automated plate reader.

[2] = system: Capan1 pancreatic cancer cell line; assay: SRB analysis 1; details: Homo sapiens, % compared to the control group, read-out: degree of growth inhibition
Experimental: as §1

[3] = system: Capan2 pancreatic cancer cell line; assay: SRB analysis 1; details: Homo sapiens, % compared to the control group, read-out: degree of growth inhibition
Experimental: as §1

[4] = system: MIA PaCa2 pancreatic cancer cell line; assay: SRB analysis 1; details: Homo sapiens, % compared to the control group, read-out: degree of growth inhibition
Experimental: as §1

[5] = system: SNU-213 pancreatic cancer cell line; assay: SRB analysis 1; details: % compared to the control group, read-out: degree of growth inhibition
Experimental: as §1

[6] = system: SNU-324 pancreatic cancer cell line; assay: SRB analysis 1; details: % compared to the control group, read-out: degree of growth inhibition
Experimental: as §1

[7] = system: AsPC-1 pancreatic cancer cells; assay: SRB analysis 2; details: 48 hours
Experimental: (§2) The SRB assay was performed as follows: each cell line (100 μl) was seeded into 96-well microtiter plates at densities ranging from 5,000 to 20,000 cells/well depending on the doubling time of each cell line. After cell seeding, microtiter plates were incubated for 24 h before addition of experimental drug. Drugs were prepared at the indicated concentrations and 100 μl was added to each well; The plates were then incubated in a CO2 incubator. Then, cold TCA was added to terminate the assay. Cells were fixed in situ by gentle addition of 50 μl of cold 50% (w/v) TCA (final concentration: 10% TCA) and incubated at 4° C. for 60 min. The supernatant was discarded and the plate was washed 5 times with tap water and then air dried. A solution (100 μl) of 0.4% (w/v) SRB (Sulforhodamine B) in 1% acetic acid was added to each well, and the plate was left at room temperature for 10 minutes. After staining, the plates were air dried after washing 5 times with 1% acetic acid to remove unbound dye. The bound dye was then solubilized with 10 mM trizma base and the absorbance was recorded at 515 nm using an automated plate reader.

[8] = system: BxPC-3 pancreatic cancer cells; assay: SRB analysis 2; details: 48 hours
Experimental: as §2

[9] = system: MIA PaCa2 pancreatic cancer cells; assay: SRB analysis 2; details: MIA PaCa-2, 48 hours
Experimental: as §2

[10] = system: SNU-213 pancreatic cancer cells; assay: SRB analysis 2; details: SNU213, 48 hours
Experimental: as §2

[11] = system: SNU-324 pancreatic cancer cells; assay: SRB analysis 2; details: SNU324, 48 hours
Experimental: as §2

[12] = system: SU.86.86 pancreatic cancer cells; assay: SRB analysis 2; details: 48 hours
Experimental: as §2

[13] = system: T87G glioblastoma (GBM) cell line; assay: SRB analysis 3; details: 48 hours
Experimental: (§3) Through SRB analysis (n=3), the effect of triple combination treatment of a CAC inhibitor ([…] inhibitor (KN713: trimetazidine) and other anticancer drug on cell growth in the cancer cells was analyzed. (see Table 11). The SRB assay was performed as follows: each cell line (100 μl) was seeded into 96-well microtiter plates at densities ranging from 5,000 to 40,000 cells/well depending on the doubling time of each cell line. After 24 hours, drug (100 μl per well) was added to each well and the culture was incubated at 37° C. for 48 hours. Cells were then fixed in 50% TCA (50 μl per well) and plates were incubated at 4° C. for a minimum of 1 hour or a maximum of 3 hours. After that, the liquid was removed from the plate, then rinsed 5 times with water and dried for approximately 12-24 hours at room temperature (RT). After the fixed cells were stained with 0.4% SRB (100 μl per well) for 10 minutes at room temperature, the plates were washed 3 times with 1% glacial acetic acid and dried at room temperature for about 12-24 hours. SRB staining was dissolved in 10 mM Trizma base and absorbance was read at 515 nm.

[14] = system: U87MG glioblastoma (GBM) cell line; assay: SRB analysis 3; details: 48 hours
Experimental: as §3

## COc1ccc2[nH]c([S+]([O-])Cc3ncc(C)c(OC)c3C)nc2c1 (stereo not shown) [KN510, omeprazole]
[1]; BX-PC3, KN510 100 μM
  inhibition at 100 µM: 79.5%
[1]; BX-PC3, KN510 200 μM
  inhibition at 200 µM: 96.9%
[2]; CAPAN-1, KN510 100 μM
  cell growth (% of control) at 100 µM: 97.6%
[2]; CAPAN-1, KN510 200 μM
  cell growth (% of control) at 200 µM: 111%
[3]; Capan-2, KN510 100 μM
  inhibition at 100 µM: 1.3%
[3]; Capan-2, KN510 200 μM
  inhibition at 200 µM: 49.5%
[4]; MIA PaCa-2, KN510 100 μM
  inhibition at 100 µM: 70.8%
[4]; MIA PaCa-2, KN510 200 μM
  inhibition at 200 µM: 92.8%
[5]; KN510 100 μM
  inhibition at 100 µM: 81%
[5]; KN510 200 μM
  inhibition at 200 µM: 89.6%
[6]; KN510 100 μM
  inhibition at 100 µM: 68.2%
[6]; KN510 200 μM
  inhibition at 200 µM: 89.8%
[7]; KN510 100 μM
  degree of cell growth based on the control (100%): 77.31%
[7]; KN510 200 μM
  degree of cell growth based on the control (100%): 28.00%
[8]; KN510 100 μM
  degree of cell growth based on the control (100%): 40.19%
[8]; KN510 200 μM
  degree of cell growth based on the control (100%): 17.37%
[9]; KN510 100 μM
  degree of cell growth based on the control (100%): 86.46%
[9]; KN510 200 μM
  degree of cell growth based on the control (100%): 44.41%
[10]; KN510 100 μM
  degree of cell growth based on the control (100%): 97.11%
[10]; KN510 200 μM
  degree of cell growth based on the control (100%): 54.29%
[11]; KN510 100 μM
  degree of cell growth based on the control (100%): 43.26%
[11]; KN510 200 μM
  degree of cell growth based on the control (100%): 19.68%
[12]; KN510 100 μM
  degree of cell growth based on the control (100%): 78.12%
[12]; KN510 200 μM
  degree of cell growth based on the control (100%): 53.01%
[13]; KN510 100 μM
  cell growth (Control = 100): 67.87
[14]; KN510 100 μM
  cell growth (Control = 100): 84.15

## COc1ccc(CN2CCNCC2)c(OC)c1OC [KN713, trimetazidine]
[1]; BX-PC3, KN713 1 mM
  inhibition at 1000 µM: 12.3%
[2]; CAPAN-1, KN713 1 mM
  cell growth (% of control) at 1000 µM: 31.2%
[3]; Capan-2, KN713 1 mM
  inhibition at 1000 µM: -22.2%
[4]; MIA PaCa-2, KN713 1 mM
  inhibition at 1000 µM: 30.2%
[5]; KN713 1 mM
  inhibition at 1000 µM: 48.1%
[6]; KN713 1 mM
  inhibition at 1000 µM: -3.16%
[7]; KN713 2.5 mM
  degree of cell growth based on the control (100%): 61.66% and 62.56%
[8]; KN713 2.5 mM
  degree of cell growth based on the control (100%): 36.83% and 32.97%
[9]; KN713 2.5 mM
  degree of cell growth based on the control (100%): 78.16% and 58.31%
[10]; KN713 2.5 mM
  degree of cell growth based on the control (100%): −0.24% and 1.98%
[11]; KN713 2.5 mM
  degree of cell growth based on the control (100%): 53.40% and 61.55%
[12]; KN713 2.5 mM
  degree of cell growth based on the control (100%): 88.97% and 65.95%
[13]; KN713 2.5 mM
  cell growth (Control = 100): 59.89
[14]; KN713 2.5 mM
  cell growth (Control = 100): 66.40
